In brackets after ≈: the same amount, converted by molar mass. Like-named read-outs stand apart in the source and are kept apart here.

For test [1], the system named is Streptococcus pneumoniae 1/1. Description: MIC against Streptococcus pneumoniae 1/1 (trimethoprim- and penicillin-resistant clinical isolate, serotype 6). In kind it is cell-based. As for the experimental part: The following Tables 1 and 2 contain inhibitory concentrations determined in the above test for representative members of the class of compound defined by formula I. The following microorganisms were tested: […]
Col. 2: MIC Spn1/1; μg/ml (Streptococcus pneumoniae 1/1, Trimethoprim- and Penicillin-resistant, Serotype 6; clinical isolate, stored at −80° C.). Lit.: H. Locher et al., Can. J. Infect. Dis. 6: Suppl. C, p 469C.

The target in test [2] is purified DHFR of strain Spn1/1 (Streptococcus pneumoniae serotype 4, UniProt Q54801, E20D/I100L/L135F/P70S/Q81H). Description: biochemical. From the text: Col. 3: DHFR Spn1/1; μM)—the IC50-values in μM against the purified DHFR of the above strain Spn1/1; of Streptococcus pneumoniae.
Test [3] concerns Streptococcus pneumoniae ATCC 49619. In words: MIC against Streptococcus pneumoniae ATCC 49619 (trimethoprim- and penicillin-susceptible reference strain). In kind it is cell-based. The method, then:
The following Tables 1 and 2 contain inhibitory concentrations determined in the above test for representative members of the class of compound defined by formula I. The following microorganisms were tested: Col. 1: […]

[4] abbreviates: Streptococcus pneumoniae 1/1, trimethoprim- and penicillin-resistant, serotype 6, read-out: Spn 1/1 MIC.
Setting [5] is: ATCC49619, Streptococcus pneumoniae ATCC 49619, trimethoprim- and penicillin-susceptible, read-out: Spn 49619 MIC.

Sequence of purified DHFR of strain Spn1/1 (Q54801 whole entry E20D/P70S/Q81H/I100L/L135F): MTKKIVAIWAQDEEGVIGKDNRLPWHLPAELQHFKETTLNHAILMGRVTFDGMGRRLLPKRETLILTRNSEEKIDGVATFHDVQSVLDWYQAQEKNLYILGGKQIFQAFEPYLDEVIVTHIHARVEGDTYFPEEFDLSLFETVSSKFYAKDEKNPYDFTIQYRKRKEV

For `CCn1ccc2c(OS(=O)(=O)C(C)C)cc(Cc3cnc(N)nc3N)cc21` [Example 8a, Propane-2-sulfonic acid 6-(2,4-diamino-pyrimidin-5-ylmethyl)-1-ethyl-1H-indol-4-yl ester], the MIC stood at 1 µg/mL (≈ 2.57 µM) in test [1] (setting [4]) and 0.03 µg/mL (≈ 0.077 µM) in test [3] (setting [5]). The same compound yielded an IC50 in test [2] of 28 nM.

On to `CCC(C)S(=O)(=O)Oc1cc(Cc2cnc(N)nc2N)cc2c1cc(C)n2CC` (racemic) [Example 15c, rac-Butane-2-sulfonic acid 6-(2,4-diamino-pyrimidin-5-ylmethyl)-1-ethyl-2-methyl-1H-indol-4-yl ester], for which the values for the MIC in test [1] (setting [4]) and in test [3] (setting [5]) were 2 µg/mL (≈ 4.79 µM) and 0.03 µg/mL (≈ 0.0719 µM), respectively. In addition, the IC50 in test [2] turned out to be 8.7 nM.

`CCn1cc(C=O)c2c(OS(=O)(=O)C(C)C)cc(Cc3cnc(N)nc3N)cc21` [Example 11, Propane-2-sulfonic acid 6-(2,4-diamino-pyrimidin-5-ylmethyl)-1-ethyl-3-formyl-1H-indol-4-yl ester]: the MIC in test [1] (Streptococcus pneumoniae, 1/1, read-out: Spn 1/1 MIC) was above 8 µg/mL; in test [3] (Streptococcus pneumoniae, ATCC49619, read-out: Spn 49619 MIC) it was 0.25 µg/mL (≈ 0.599 µM). Also, the IC50 in test [2] was 93 nM.

For `CCn1ccc2c(OCC3CC3)cc(Cc3cnc(N)nc3N)cc21` [Example 7a, 5-(4-Cyclopropylmethoxy-1-ethyl-1H-indol-6-ylmethyl)-pyrimidine-2,4-diamine], the values for the MIC in test [1] (setting [4]) and in test [3] (setting [5]) were 4 µg/mL (≈ 11.9 µM) and 0.125 µg/mL (≈ 0.37 µM), respectively. Further, in test [2], the IC50 was 21 nM.

With `CCOc1cc(Cc2cnc(N)nc2N)cc2c1ccn2C1CCCC1` [Example 2b, 5-(1-Cyclopentyl-4-ethoxy-1H-indol-6-ylmethyl)-pyrimidine-2,4-diamine], the MIC in test [1] (setting [4]) was determined as 8 µg/mL (≈ 22.8 µM); in test [3] (setting [5]), 0.5 µg/mL (≈ 1.42 µM). In test [2], this compound gave an IC50 of 150 nM.

With `CCn1cc(CN2CCOCC2)c2c(OS(=O)(=O)C(C)C)cc(Cc3cnc(N)nc3N)cc21` [Example 10b, Propane-2-sulfonic acid 6-(2,4-diamino-pyrimidin-5-ylmethyl)-1-ethyl-3-morpholino-4-ylmethyl-1H-indol-4-ester], the values for the MIC in test [1] (setting [4]) and in test [3] (setting [5]) were 8 µg/mL (≈ 16.4 µM) and 0.5 µg/mL (≈ 1.02 µM), respectively. In test [2], this compound registered an IC50 of 110 nM.

On to `CCn1ccc2c(OCC(C)C)cc(Cc3cnc(N)nc3N)cc21` [Example 7g, 5-(1-Ethyl-4-isobutoxy-1H-indol-6-ylmethyl)-pyrimidine-2,4-diamine], for which the values for the MIC in test [1] (setting [4]) and in test [3] (setting [5]) were 2 µg/mL (≈ 5.89 µM) and 0.5 µg/mL (≈ 1.47 µM), respectively. This compound gave an IC50 in test [2] of 29 nM.

Turning to `CCn1cc(Br)c2c(OCC3CC3)cc(Cc3cnc(N)nc3N)cc21` [Example 13, 5-(3-Bromo-4-cyclopropylmethoxy-1-ethyl-1H-indol-6-ylmethyl)-pyrimidine-2,4-diamine], the MIC in test [1] (setting [4]) was determined as 4 µg/mL (≈ 9.61 µM); in test [3] (setting [5]), 0.125 µg/mL (≈ 0.3 µM). In addition, the IC50 in test [2] worked out at 42 nM.

For the compound `C#CCOc1cc(Cc2cnc(N)nc2N)cc2c1ccn2CC` [Example 7d, 5-(1-Ethyl-4-prop-2-ynyloxy-1H-indol-6-ylmethyl)-pyrimidine-2,4-diamine], the MIC came to 8 µg/mL (≈ 24.9 µM) in test [1] (setting [4]) and 0.125 µg/mL (≈ 0.389 µM) in test [3] (setting [5]). This compound also yielded an IC50 in test [2] of 71 nM.

With `CCOc1cc(Cc2cnc(N)nc2N)cc2c1cc(C)n2CC` [Example 15a, 5-(4-Ethoxy-1-ethyl-2-methyl-1H-indol-6-ylmethyl)-pyrimidine-2,4-diamine], the values for the MIC in test [1] (setting [4]) and in test [3] (setting [5]) were 8 µg/mL (≈ 24.6 µM) and 0.25 µg/mL (≈ 0.768 µM), respectively. The IC50 in test [2] is 56 nM.

On to `CC(C)Oc1cc(Cc2cnc(N)nc2N)cc2c1ccn2C` [Example 5b, 5-(4-Isopropoxy-1-methyl-1H-indol-6-ylmethyl)-pyrimidine-2,4-diamine], for which the MIC in test [1] (setting [4]) was above 8 µg/mL; in test [3] (setting [5]), 0.5 µg/mL (≈ 1.61 µM). The same compound showed an IC50 in test [2] of 170 nM.

With `CCn1ccc2c(OC)cc(Cc3cnc(N)nc3N)cc21` [Example 7b, 5-(1-Ethyl-4-methoxy-1H-indol-6-ylmethyl)-pyrimidine-2,4-diamine], the values for the MIC in test [1] (setting [4]) and in test [3] (setting [5]) were 8 µg/mL (≈ 26.9 µM) and 0.5 µg/mL (≈ 1.68 µM), respectively. Moreover, the IC50 in test [2] stood at 410 nM.

For the compound `CCn1cc(CN2CCSCC2)c2c(OS(=O)(=O)C(C)C)cc(Cc3cnc(N)nc3N)cc21` [Example 10c, Propane-2-sulfonic acid 6-(2,4-diamino-pyrimidin-5-ylmethyl)-1-ethyl-3-thiomorpholin-4-ylmethyl-1H-indol-4-yl ester], the MIC was determined as 4 µg/mL (≈ 7.93 µM) in test [1] (setting [4]) and 1 µg/mL (≈ 1.98 µM) in test [3] (setting [5]). In addition, the IC50 in test [2] was 160 nM.

As to `COc1cc(Cc2cnc(N)nc2N)cc(OC)c1OC` [Trimethoprim, reference compound], the MIC in test [1] (setting [4]) is above 32 µg/mL; in test [3] (setting [5]), 4 µg/mL (≈ 13.8 µM).

As to `CCn1ccc2c(OS(=O)(=O)CC(C)C)cc(Cc3cnc(N)nc3N)cc21` [Example 8c, 2-Methyl-propane-1-sulfonic acid 6-(2,4-diamino-pyrimidin-5-ylmethyl)-1-ethyl-1H-indol-4-yl ester], the figures for the MIC in test [1] (setting [4]) and in test [3] (setting [5]) were 2 µg/mL (≈ 4.96 µM) and at most 0.015 µg/mL, respectively. The IC50 in test [2] was 1.5 nM.

For `CCOc1cc(Cc2cnc(N)nc2N)cc2c1ccn2Cc1ccccc1` [Example 2c, 5-(1-Benzyl-4-ethoxy-1H-indol-6-ylmethyl)-pyrimidine-2,4-diamine], the MIC in test [1] (setting [4]) is above 8 µg/mL; in test [3] (setting [5]) it was 2 µg/mL (≈ 5.36 µM). In addition, the IC50 in test [2] was 460 nM.

Take `CCOc1cc(Cc2cnc(N)nc2N)cc(OCC)c1-n1cccc1` [Epiroprim, reference compound]: the figures for the MIC in test [1] (setting [4]) and in test [3] (setting [5]) were 4 µg/mL (≈ 11.3 µM) and 0.125 µg/mL (≈ 0.354 µM), respectively. Further, the IC50 in test [2] is 190 nM.

As to “6-(2,4-Diamino-pyrimidin-5-ylmethyl)-4-ethoxy-indole-1-sulfonic Acid dimethylamide [Example 2e]”, the “Spn 1/1 MIC” value in test [1] (Streptococcus pneumoniae 1/1, trimethoprim- and penicillin-resistant, serotype 6) was 4 µg/mL. In addition, the IC50 in test [2] (purified DHFR of S. pneumoniae strain Spn1/1, read-out: Spn 1/1 IC50) was 110 nM. For the same compound, in test [3] (Streptococcus pneumoniae ATCC 49619, trimethoprim- and penicillin-susceptible), the “Spn 49619 MIC” value is 0.06 µg/mL.

As for `CCn1cc(CN2CCOCC2)c2c(OCC3CC3)cc(Cc3cnc(N)nc3N)cc21` [Example 10a, 5-(4-Cyclopropylmethoxy-1-ethyl-3-morpholin-4-ylmethyl-1H-indol-6-ylmethyl)-pyrimidine-2,4-diamine], the MIC is 8 µg/mL (≈ 18.3 µM) in test [1] (setting [4]) and 0.25 µg/mL (≈ 0.573 µM) in test [3] (setting [5]). This compound also displayed an IC50 in test [2] of 180 nM.

Turning to `CCn1cc(C)c2c(OS(=O)(=O)C(C)C)cc(Cc3cnc(N)nc3N)cc21` [Example 12a, Propane-2-sulfonic acid 6-(2,4-diamino-pyrimidin-5-ylmethyl)-1-ethyl-3-methyl-1H-indol-4-yl ester], the MIC in test [1] (setting [4]) stood at 4 µg/mL (≈ 9.91 µM); in test [3] (setting [5]), 0.125 µg/mL (≈ 0.31 µM). The IC50 in test [2] worked out at 15 nM.

On to `CCn1cc(CN2CCOCC2)c2c(OS(=O)(=O)CC3CC3)cc(Cc3cnc(N)nc3N)cc21` [Example 10e, Cyclopropyl-methanesulfonic acid 6-(2,4-diamino-pyrimidin-5-ylmethyl)-1-ethyl-3-morpholin-4-ylmethyl-1H-indol-4-yl ester], for which the MIC was 4 µg/mL (≈ 7.99 µM) in test [1] (setting [4]) and 0.125 µg/mL (≈ 0.25 µM) in test [3] (setting [5]). In addition, the IC50 in test [2] amounted to 4.8 nM.

With `CCn1cc(CN2CC(C)OC(C)C2)c2c(OS(=O)(=O)C(C)C)cc(Cc3cnc(N)nc3N)cc21` (mixture of isomers) [Example 10d, (cis/trans)-Propane-2-sulfonic acid 6-(2,4-diamino-pyrimidin-5-ylmethyl)-3-(2,6-dimethyl-morpholin-4-ylmethyl)-1-ethyl-1H-indol-4-yl ester], the MIC was found to be 8 µg/mL in test [1] (setting [4]) and 1 µg/mL in test [3] (setting [5]). The IC50 in test [2] amounted to 250 nM.

With `CCn1ccc2c(OC(C)C)cc(Cc3cnc(N)nc3N)cc21` [Example 7c, 5-(1-Ethyl-4-isopropoxy-1H-indol-6-ylmethyl)-pyrimidine-2,4-diamine], the MIC in test [1] (setting [4]) worked out at 4 µg/mL (≈ 12.3 µM); in test [3] (setting [5]), 0.25 µg/mL (≈ 0.768 µM). Further, the IC50 in test [2] was found to be 140 nM.

Consider `CC(C)S(=O)(=O)Oc1cc(Cc2cnc(N)nc2N)cc2c1ccn2C` [Example 5c, Propane-2-sulfonic acid 6-(2,4-diamino-pyrimidin-5-ylmethyl)-1-methyl-1H-indol-4-yl ester], for which the values for the MIC in test [1] (setting [4]) and in test [3] (setting [5]) were 4 µg/mL (≈ 10.7 µM) and 0.25 µg/mL (≈ 0.666 µM), respectively. In test [2], this compound showed an IC50 of 84 nM.

Consider `CCn1c(C)cc2c(OCC3CC3)cc(Cc3cnc(N)nc3N)cc21` [Example 15b, 5-(4-Cyclopropylmethoxy-1-ethyl-2-methyl-1H-indol-6-ylmethyl)-pyrimidine-2,4-diamine], for which the MIC in test [1] (setting [4]) worked out at 8 µg/mL (≈ 22.8 µM); in test [3] (setting [5]) it was 0.5 µg/mL (≈ 1.42 µM). The compound also displayed an IC50 in test [2] of 20 nM.

`CCn1ccc2c(OS(=O)(=O)N(C)C)cc(Cc3cnc(N)nc3N)cc21` [Example 9, Dimethyl-sulfamic Acid 6-(2,4-diamino-pyrimidin-5-ylmethyl)-1-ethyl-1H-indol-4-yl ester]: the MIC in test [1] (setting [4]) stood at 2 µg/mL (≈ 5.12 µM); in test [3] (setting [5]) it was 0.03 µg/mL (≈ 0.0768 µM). Further, in test [2], the IC50 turned out to be 29 nM.

In the case of `CCn1ccc2c(OS(=O)(=O)CC3CC3)cc(Cc3cnc(N)nc3N)cc21` [Example 8b, Cyclopropyl-methanesulfonic acid 6-(2,4-diamino-pyrimidin-5-ylmethyl)-1-ethyl-1H-indol-4-yl ester], the MIC in test [1] (setting [4]) was 1 µg/mL (≈ 2.49 µM); in test [3] (setting [5]), at most 0.015 µg/mL. The IC50 in test [2] was found to be 1.5 nM.
